Measurements as given in patent publication US5288709A, “Erythromycin derivatives” (priority 1991, dated 1994).
In brackets after ≈: the same amount, converted by molar mass. Like-named read-outs stand apart in the source and are kept apart here.

Tests used:
Assay in all cases: In-vitro antimicrobial activity primary screen (agar dilution MIC)
Format in all cases: cell-based
Acinetobacter SP CMX 669 = test system: Acinetobacter SP CMX 669
Procedure: (§1) The antimicrobial spectra of several of the compounds of the present invention were tested as described below.
(§2) Twelve petri dishes containing successive aqueous dilutions of the test compounds, mixed with 10 mL of sterilized Brain Heart Infusion (BHI) agar (Difco 0418-01-5), were prepared. Each plate was inoculated with 1:100 (or 1:10 for slow growing strains (primarily Micrococcus and Streptococcus) dilutions of up to 32 different microorganisms, using a Steers replicator block. The inoculated plates were incubated at 35 37° C. for 20-24 hours. In addition, a control plate, using BHI agar containing no test compound, was prepared and incubated at the beginning and the end of each test.
(§3) An additional plate containing a compound having known susceptibility patterns for the organisms being tested and belonging to the same antibiotic class as the test compounds was also prepared and incubated as a further control, as well as to provide test-to test comparability.
(§4) After incubation, each plate was read. The MIC (minimum inhibitory concentration) is defined as the lowest concentration of test compound yielding no growth, a slight haze, or sparsely isolated colonies on the inoculum spot as compared to the growth control containing no test compound.

[1] = test system: Enterobacter aerogenes ATCC 13048; conditions: Klebsiella aerogenes
Procedure: as §1, §2, §3, §4

[2] = test system: Enterococcus faecium ATCC 8043; conditions: Enterococcus faecium, ATCC8043, 24 h
Procedure: as §1, §2, §3, §4

Escherichia coli DC-2 = test system: Escherichia coli DC-2
Procedure: as §1, §2, §3, §4

Escherichia coli H560 = conditions: Escherichia coli H560, BHI agar, 20-24 h
Procedure: as §1, §2, §3, §4

Escherichia coli JUHL = test system: Escherichia coli JUHL
Procedure: as §1, §2, §3, §4

Escherichia coli SS = conditions: BHI agar, 20-24 h, read-out: MIC
Procedure: as §1, §2, §3, §4

[3] = test system: Klebsiella pneumoniae ATCC 8045
Procedure: as §1, §2, §3, §4

[4] = test system: Micrococcus luteus ATCC 4698; conditions: Micrococcus luteus, ATCC4698, 24 h, BHI agar, 20-24 h
Procedure: as §1, §2, §3, §4

[5] = test system: Micrococcus luteus ATCC 9341; conditions: 20-24 h
Procedure: as §1, §2, §3, §4

[6] = test system: Providencia stuartii CMX 640
Procedure: as §1, §2, §3, §4

[7] = test system: Pseudomonas aeruginosa A5007
Procedure: as §1, §2, §3, §4

[8] = test system: Pseudomonas aeruginosa BMH10; conditions: BHI agar, 20-24 h
Procedure: as §1, §2, §3, §4

[9] = test system: Pseudomonas aeruginosa K799/61; conditions: Pseudomonas aeruginosa K799/61, BHI agar, 20-24 h
Procedure: as §1, §2, §3, §4

[10] = test system: Pseudomonas aeruginosa K799/WT
Procedure: as §1, §2, §3, §4

Pseudomonas cepacia 2961 = conditions: BHI agar, 20-24 h
Procedure: as §1, §2, §3, §4

[11] = test system: Staphylococcus aureus 45 RAR2; conditions: Staphylococcus aureus, 45RAR2, 24 h, BHI agar, 20-24 h
Procedure: as §1, §2, §3, §4

Staphylococcus aureus 45 = conditions: BHI agar, 20-24 h, read-out: MIC
Procedure: as §1, §2, §3, §4

[12] = test system: Staphylococcus aureus A5177; conditions: Staphylococcus aureus A5177, BHI agar, 20-24 h
Procedure: as §1, §2, §3, §4

[13] = test system: Staphylococcus aureus ATCC 6538P; conditions: Staphylococcus aureus, ATCC6538P, 24 h, BHI agar, 20-24 h
Procedure: as §1, §2, §3, §4

[14] = test system: Staphylococcus epidermidis 3519; conditions: Staphylococcus epidermidis, 3519, 24 h, BHI agar, 20-24 h
Procedure: as §1, §2, §3, §4

[15] = test system: Streptococcus agalactiae CMX 508; conditions: Streptococcus agalactiae, CMX508, 24 h, BHI agar, 20-24 h
Procedure: as §1, §2, §3, §4

[16] = test system: Streptococcus bovis A5169; conditions: Streptococcus equinus, BHI agar, 20-24 h
Procedure: as §1, §2, §3, §4

[17] = test system: Streptococcus pyrogenes 2548 INDUC; conditions: BHI agar, 20-24 h, read-out: MIC
Procedure: as §1, §2, §3, §4

[18] = test system: Streptococcus pyrogenes EES61; conditions: BHI agar, 20-24 h, read-out: MIC
Procedure: as §1, §2, §3, §4

[19] = test system: Staphylococcus aureus CMX 503A; conditions: Staphylococcus aureus, CMX503A, 24 h, BHI agar, 20-24 h, read-out: MIC
Procedure: as §1, §2
as §3, with “comparability. Erythromycin A was used for this purpose.” for “comparability.”
as §4

[20] = test system: Staphylococcus aureus CMX 553; conditions: Staphylococcus aureus, CMX553, 24 h, BHI agar, 20-24 h, read-out: MIC
Procedure: as §1, §2
as §3, with “comparability. Erythromycin A was used for this purpose.” for “comparability.”
as §4

[21] = test system: Staphylococcus aureus CMX 686B; conditions: CMX686B, BHI agar, 20-24 h, read-out: MIC
Procedure: as §1, §2
as §3, with “comparability. Erythromycin A was used for this purpose.” for “comparability.”
as §4

## CC[C@H]1OC(=O)[C@H](C)[C@@H](O[C@H]2C[C@@](C)(OC)[C@H](N=CN(C)C)[C@H](C)O2)[C@H](C)[C@@H](O[C@@H]2O[C@H](C)C[C@H](N(C)C)[C@H]2O)[C@](C)(O)C[C@@H](C)[C@@H]2O[C@@]1(C)C(=O)[C@H]2C [Example 9, (4"R,9S)-9-Deoxo-4",11,12-trideoxy-9,12-epoxy-4"-[[(dimethyamino)methylene]amino]-11-oxoerythromycin A]
Acinetobacter SP CMX 669; Acinetobacter, SPCMX669, 24 h
  MIC: 50 µg/mL (≈ 64.9 µM)
[1]; ATCC13048, 24 h
  MIC: > 100 µg/mL
[2]
  MIC: 0.1 µg/mL (≈ 0.13 µM)
Escherichia coli DC-2; Escherichia coli, DC2, 24 h
  MIC: > 100 µg/mL
Escherichia coli H560; Escherichia coli, H560, 24 h
  MIC: 50 µg/mL (≈ 64.9 µM)
Escherichia coli JUHL; Escherichia coli, 24 h
  MIC: > 100 µg/mL
Escherichia coli SS
  MIC: 0.78 µg/mL (≈ 1.01 µM)
[3]; Klebsiella pneumoniae, ATCC8045, 24 h
  MIC: > 100 µg/mL
[4]
  MIC: 0.2 µg/mL (≈ 0.26 µM)
[5]; Micrococcus luteus, ATCC9341, 24 h, BHI agar
  MIC: 0.02 µg/mL (≈ 0.026 µM)
[6]; Providencia stuartii, CMX640, 24 h
  MIC: > 100 µg/mL
[7]; Pseudomonas aeruginosa, A5007, 24 h
  MIC: > 100 µg/mL
[8]; Pseudomonas aeruginosa, BMH10, 24 h
  MIC: > 100 µg/mL
[9]; Pseudomonas aeruginosa, K799/61, 24 h
  MIC: 3.1 µg/mL (≈ 4.03 µM)
[10]; Pseudomonas aeruginosa, K799/WT, 24 h
  MIC: 100 µg/mL (≈ 130 µM)
Pseudomonas cepacia 2961; Burkholderia cepacia, 2961, 24 h
  MIC: > 100 µg/mL
[11]
  MIC: 0.78 µg/mL (≈ 1.01 µM)
Staphylococcus aureus 45
  MIC: 0.39 µg/mL (≈ 0.506 µM)
[12]; Staphylococcus aureus, A5177, 24 h
  MIC: 0.78 µg/mL (≈ 1.01 µM)
[13]
  MIC: 0.39 µg/mL (≈ 0.506 µM)
[14]
  MIC: 0.39 µg/mL (≈ 0.506 µM)
[15]
  MIC: 0.01 µg/mL (≈ 0.013 µM)
[16]; read-out: MIC
  MIC: < 0.005 µg/mL
[17]
  MIC: 6.2 µg/mL (≈ 8.05 µM)
[18]
  MIC: < 0.005 µg/mL
[19]
  MIC: 0.39 µg/mL (≈ 0.506 µM)
[20]
  MIC: 0.39 µg/mL (≈ 0.506 µM)
[21]
  MIC: 0.39 µg/mL (≈ 0.506 µM)

## CC[C@H]1OC(=O)[C@H](C)[C@@H](O[C@H]2C[C@@](C)(OC)[C@H](NC(C)=O)[C@H](C)O2)[C@H](C)[C@@H](O[C@@H]2O[C@H](C)C[C@H](N(C)C)[C@H]2O)[C@](C)(O)C[C@@H](C)[C@@H]2O[C@@]1(C)C(=O)[C@H]2C [Example 10, (4"R,9S) 4"-Acetylamino-9-deoxo-4",11,12-trideoxy-9,12-epoxy-11-oxoerythromycin A]
Acinetobacter SP CMX 669; SPCMX669, Acinetobacter SP CMX 669, BHI agar, 20-24 h, read-out: MIC
  MIC: 50 µg/mL (≈ 66.1 µM)
[1]; ATCC13048, Enterobacter aerogenes ATCC 13048, BHI agar, 20-24 h, read-out: MIC
  MIC: > 100 µg/mL
[2]
  MIC: 0.2 µg/mL (≈ 0.264 µM)
Escherichia coli DC-2; DC2, Escherichia coli DC-2, BHI agar, 20-24 h, read-out: MIC
  MIC: > 100 µg/mL
Escherichia coli H560; read-out: MIC
  MIC: 100 µg/mL (≈ 132 µM)
Escherichia coli JUHL; Escherichia coli JUHL, BHI agar, 20-24 h, read-out: MIC
  MIC: > 100 µg/mL
Escherichia coli SS
  MIC: 0.39 µg/mL (≈ 0.515 µM)
[3]; ATCC8045, Klebsiella pneumoniae ATCC 8045, BHI agar, 20-24 h, read-out: MIC
  MIC: > 100 µg/mL
[4]
  MIC: 0.2 µg/mL (≈ 0.264 µM)
[5]; ATCC9341, BHI agar, read-out: MIC
  MIC: 0.05 µg/mL (≈ 0.0661 µM)
[6]; CMX640, Providencia stuartii CMX 640, BHI agar, 20-24 h, read-out: MIC
  MIC: > 100 µg/mL
[7]; Pseudomonas aeruginosa A5007, BHI agar, 20-24 h, read-out: MIC
  MIC: > 100 µg/mL
[8]; read-out: MIC
  MIC: > 100 µg/mL
[9]; read-out: MIC
  MIC: 1.56 µg/mL (≈ 2.06 µM)
[10]; Pseudomonas aeruginosa K799/WT, BHI agar, 20-24 h, read-out: MIC
  MIC: > 100 µg/mL
Pseudomonas cepacia 2961; Burkholderia cepacia, read-out: MIC
  MIC: > 100 µg/mL
[11]
  MIC: 0.39 µg/mL (≈ 0.515 µM)
Staphylococcus aureus 45
  MIC: 0.39 µg/mL (≈ 0.515 µM)
[12]; read-out: MIC
  MIC: 0.39 µg/mL (≈ 0.515 µM)
[13]
  MIC: 0.39 µg/mL (≈ 0.515 µM)
[14]
  MIC: 0.39 µg/mL (≈ 0.515 µM)
[15]
  MIC: 0.1 µg/mL (≈ 0.132 µM)
[16]; A5169, 24 h
  MIC: 0.2 µg/mL (≈ 0.264 µM)
[17]
  MIC: 0.78 µg/mL (≈ 1.03 µM)
[18]
  MIC: 0.02 µg/mL (≈ 0.0264 µM)
[19]
  MIC: 0.39 µg/mL (≈ 0.515 µM)
[20]
  MIC: 0.39 µg/mL (≈ 0.515 µM)
[21]
  MIC: 0.39 µg/mL (≈ 0.515 µM)
